# Measured values: ChEMBL document CHEMBL1201862, “PubChem BioAssay data set” (2004)
# Activity calls are given as the source filed them.
# How the values were obtained:
# Cytochrome P450 3A4 = Cytochrome P450 3A4 (Homo sapiens, UniProt P08684); settings: Potency;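 also: confirmatory qHTS run detecting inhibitors and substrates of CYP3A4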
# [1] = biological target: T1, E3 ubiquitin-protein ligase XIAP (Homo sapiens, UniProt P98170); test: small molecules displacing peptide from XIAP – biochemical, IAP family, fluorescence polarization (AID 1018); assay type: functional
# [2] = biological target: T1, E3 ubiquitin-protein ligase XIAP; test: Counter Screen using XIAP-Bir3 for Chemical Antagonists of Bir1/2 domains of IAP-family anti-apoptotic proteins. [Related pubchem assays (depositor defined):AID1018, AID1449, AID1514, AID1638, AID1749, AID1750, AID488957, AID488963]
# [3] = HEK-293T viability loss after treatment – luminescence, T-cell screen hits, cytotoxicity control for TCR NF-kB inhibitor project, dose response (AID 489026); assay type: functional, cell-based;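 also: cells exposed to compound about 14 hours before the viability readout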
# H9c2 = test: cells; assay type: functional, cell-based; settings: Rattus norvegicus, H9c2, Myocardium;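 also: confirmatory concentration-response retest of ultra-high-throughput screening hits for modulation of myocardial damage; cell death induced by hydrogen peroxide oxidative stress; compound pretreatment for 60 min then peroxide exposure for 2 h; potency is for protecting the cells against peroxide damage rather than for killing them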
# [4] = biological target: DNA dC->dU-editing enzyme APOBEC-3G (Homo sapiens, UniProt Q9HC16); test: Dose Response confirmation of small molecule APOBEC3G DNA Deaminase Inhibitors via a fluorescence-based single-stranded DNA deaminase assay. [Related pubchem assays (depositor defined):AID493012, AID493028]; assay type: functional
# [5] = Trypanosoma cruzi growth suppression in host cells – NIH3T3 host cells, beta-gal luminescence, confirmation (AID 2044); assay type: functional, cell-based;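 also: intracellular parasites grown in NIH/3T3 mouse fibroblasts as host cells; luminescent beta-galactosidase reporter signal from transgenic T. cruzi replicating inside host cells; inhibitors lower the luminescence signal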
# [6] = NIH3T3 cell viability loss – ATP luminescence, mouse fibroblasts, counter-screen, dose response (AID 2010); assay type: functional, cell-based;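 also: cells exposed to compound for about 90 hours before reading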
# [7] = biological target: Glucose-6-phosphate 1-dehydrogenase (Homo sapiens, UniProt P11413); test: inhibition of Homo sapiens G6PD, dose series – biochemical, fluorescence, selectivity assay for P. falciparum G6PD inhibitor project, dose response (AID 504792); assay type: functional
# [8] = A cytotoxicity screen of small molecule inhibitors of the PhoP region in Salmonella typhi identified in the primary screen. [Related pubchem assays: 1850, 1864, 1985 ]; assay type: functional
# [9] = biological target: Dual specificity tyrosine-phosphorylation-regulated kinase 1A (Rattus norvegicus, UniProt Q63470); assay type: biochemical, Homo sapiens
# Prothrombin = Prothrombin (Homo sapiens, UniProt P00734); test: Thrombin 1536 HTS Dose Response Confirmation. [Related pubchem assays: 1046 (Thrombin 1536 HTS; hits were confirmed in this assay)]; assay type: functional
# [10] = non-specific 3'UTR reporter inhibition in Clone20-Shn3RL – cell-based, Renilla luciferase, cherry-picked, counter-screen for Shn3 inhibitor project, dose response (AID 624133); assay type: functional
# [11] = reduction of Shn3 3'UTR-driven luciferase in osteoblasts – cell-based, Clone20 osteoblasts, firefly luciferase, cherry-picked, dose response (AID 624132); assay type: functional;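 also: firefly luciferase luminescence from reporter carrying the Shn3 3'UTR in osteoblasts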
# [12] = biological target: FAD-linked sulfhydryl oxidase ALR (Homo sapiens, UniProt P55789); test: ALR-catalysed DTT oxidation blockers – biochemical, H2O2 detection, luminescence, cherry-pick, dose response (AID 493248)
# [13] = biological target: T2, Replicative DNA helicase DnaB (Mycobacterium tuberculosis, UniProt P9WMR3); test: DnaB intein splicing inhibitors, dose response, biochemical, cell-free fluorescence (AID 449749); assay type: functional
# T2 sequence (P9WMR3 whole entry): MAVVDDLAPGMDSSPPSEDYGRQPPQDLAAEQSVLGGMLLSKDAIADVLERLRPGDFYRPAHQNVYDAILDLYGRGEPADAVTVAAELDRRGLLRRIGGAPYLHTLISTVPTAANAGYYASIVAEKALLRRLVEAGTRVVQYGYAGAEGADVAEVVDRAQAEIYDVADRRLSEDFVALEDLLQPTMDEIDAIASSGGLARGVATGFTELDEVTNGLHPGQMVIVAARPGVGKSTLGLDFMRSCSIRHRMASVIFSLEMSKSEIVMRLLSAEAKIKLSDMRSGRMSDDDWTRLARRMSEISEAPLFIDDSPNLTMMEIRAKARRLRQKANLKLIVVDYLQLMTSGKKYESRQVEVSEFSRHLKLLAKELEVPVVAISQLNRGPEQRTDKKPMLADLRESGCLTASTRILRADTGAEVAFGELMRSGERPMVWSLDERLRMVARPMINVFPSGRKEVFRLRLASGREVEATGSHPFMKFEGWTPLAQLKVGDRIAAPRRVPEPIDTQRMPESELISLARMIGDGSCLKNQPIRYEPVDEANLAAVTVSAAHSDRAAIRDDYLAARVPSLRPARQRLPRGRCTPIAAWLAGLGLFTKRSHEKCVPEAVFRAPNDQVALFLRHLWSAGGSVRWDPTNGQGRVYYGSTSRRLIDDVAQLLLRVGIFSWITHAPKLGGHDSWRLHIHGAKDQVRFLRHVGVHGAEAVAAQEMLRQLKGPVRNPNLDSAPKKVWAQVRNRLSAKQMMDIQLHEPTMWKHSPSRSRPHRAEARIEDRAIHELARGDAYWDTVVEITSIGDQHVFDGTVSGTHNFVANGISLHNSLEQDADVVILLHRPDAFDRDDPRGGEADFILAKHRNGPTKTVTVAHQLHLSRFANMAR
# Protein RecA = biological target: T3, Protein RecA (Mycobacterium tuberculosis, UniProt P9WHJ3); test: Fluorescence Cell-Free Homogeneous Dose Retest to Identify Inhibitors of RecA-Intein Splicing Activity. [Related pubchem assays (depositor defined):AID2097, AID2223, AID489010, AID492950]; assay type: functional
# T3 sequence (P9WHJ3 whole entry): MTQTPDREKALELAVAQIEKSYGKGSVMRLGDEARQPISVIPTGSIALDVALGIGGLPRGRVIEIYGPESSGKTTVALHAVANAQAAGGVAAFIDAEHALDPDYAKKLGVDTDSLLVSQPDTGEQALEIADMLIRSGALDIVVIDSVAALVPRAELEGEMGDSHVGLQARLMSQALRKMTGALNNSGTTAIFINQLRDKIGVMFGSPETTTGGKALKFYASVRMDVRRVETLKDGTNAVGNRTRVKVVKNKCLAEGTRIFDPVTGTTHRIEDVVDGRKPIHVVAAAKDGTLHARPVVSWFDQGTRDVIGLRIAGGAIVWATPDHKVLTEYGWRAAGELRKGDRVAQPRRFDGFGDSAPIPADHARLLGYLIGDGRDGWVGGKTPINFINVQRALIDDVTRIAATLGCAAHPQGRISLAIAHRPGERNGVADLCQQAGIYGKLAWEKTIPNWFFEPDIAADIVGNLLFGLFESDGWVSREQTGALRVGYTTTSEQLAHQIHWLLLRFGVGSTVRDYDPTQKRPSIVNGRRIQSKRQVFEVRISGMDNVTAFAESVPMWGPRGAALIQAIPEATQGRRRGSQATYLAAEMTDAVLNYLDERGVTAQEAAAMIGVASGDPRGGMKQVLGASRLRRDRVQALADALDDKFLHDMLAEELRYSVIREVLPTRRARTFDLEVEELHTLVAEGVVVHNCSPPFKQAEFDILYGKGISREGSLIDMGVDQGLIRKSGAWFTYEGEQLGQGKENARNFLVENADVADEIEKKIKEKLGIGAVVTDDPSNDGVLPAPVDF
# [14] = biological target: Glyceraldehyde-3-phosphate dehydrogenase (Homo sapiens, UniProt P04406)
# Glyceraldehyde-3-phosphate dehydrogenase, sequence (P04406 whole entry): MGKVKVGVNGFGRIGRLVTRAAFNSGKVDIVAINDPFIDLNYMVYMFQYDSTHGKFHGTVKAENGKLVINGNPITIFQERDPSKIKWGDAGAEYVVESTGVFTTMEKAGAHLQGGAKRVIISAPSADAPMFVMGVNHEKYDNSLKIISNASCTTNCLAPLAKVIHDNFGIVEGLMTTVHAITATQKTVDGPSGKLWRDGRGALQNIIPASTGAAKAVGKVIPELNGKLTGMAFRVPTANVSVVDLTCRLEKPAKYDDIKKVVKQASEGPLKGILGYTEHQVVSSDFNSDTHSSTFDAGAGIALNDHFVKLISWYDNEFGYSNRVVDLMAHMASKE
# Cytochrome P450 3A4, sequence (P08684 whole entry): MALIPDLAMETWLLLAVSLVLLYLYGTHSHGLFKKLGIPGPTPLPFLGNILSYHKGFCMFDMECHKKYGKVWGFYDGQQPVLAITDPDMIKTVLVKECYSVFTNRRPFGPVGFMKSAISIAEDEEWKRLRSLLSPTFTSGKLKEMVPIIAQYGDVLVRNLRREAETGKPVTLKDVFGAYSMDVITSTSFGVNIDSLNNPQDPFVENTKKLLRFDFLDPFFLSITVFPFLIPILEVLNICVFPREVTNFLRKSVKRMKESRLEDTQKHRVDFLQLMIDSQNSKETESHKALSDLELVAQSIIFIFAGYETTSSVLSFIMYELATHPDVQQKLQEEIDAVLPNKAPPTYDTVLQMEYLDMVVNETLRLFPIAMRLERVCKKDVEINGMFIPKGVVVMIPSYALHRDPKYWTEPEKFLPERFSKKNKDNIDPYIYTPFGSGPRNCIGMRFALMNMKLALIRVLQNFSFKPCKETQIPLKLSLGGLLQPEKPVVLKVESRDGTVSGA
# T1 sequence (P98170 whole entry): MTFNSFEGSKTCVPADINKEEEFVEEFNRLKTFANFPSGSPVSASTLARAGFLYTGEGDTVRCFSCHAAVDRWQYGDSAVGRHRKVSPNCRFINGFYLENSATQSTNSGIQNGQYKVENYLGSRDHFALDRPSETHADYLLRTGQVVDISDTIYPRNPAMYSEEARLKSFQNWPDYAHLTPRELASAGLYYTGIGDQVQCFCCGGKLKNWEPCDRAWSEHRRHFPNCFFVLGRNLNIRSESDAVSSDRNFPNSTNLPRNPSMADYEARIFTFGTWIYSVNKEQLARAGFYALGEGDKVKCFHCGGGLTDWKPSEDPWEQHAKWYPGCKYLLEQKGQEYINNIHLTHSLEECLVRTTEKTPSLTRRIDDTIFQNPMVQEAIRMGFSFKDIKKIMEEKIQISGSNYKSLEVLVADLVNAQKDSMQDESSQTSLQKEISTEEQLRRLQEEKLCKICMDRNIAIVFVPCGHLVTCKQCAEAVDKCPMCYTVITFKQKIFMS
# Glucose-6-phosphate 1-dehydrogenase, sequence (P11413 whole entry): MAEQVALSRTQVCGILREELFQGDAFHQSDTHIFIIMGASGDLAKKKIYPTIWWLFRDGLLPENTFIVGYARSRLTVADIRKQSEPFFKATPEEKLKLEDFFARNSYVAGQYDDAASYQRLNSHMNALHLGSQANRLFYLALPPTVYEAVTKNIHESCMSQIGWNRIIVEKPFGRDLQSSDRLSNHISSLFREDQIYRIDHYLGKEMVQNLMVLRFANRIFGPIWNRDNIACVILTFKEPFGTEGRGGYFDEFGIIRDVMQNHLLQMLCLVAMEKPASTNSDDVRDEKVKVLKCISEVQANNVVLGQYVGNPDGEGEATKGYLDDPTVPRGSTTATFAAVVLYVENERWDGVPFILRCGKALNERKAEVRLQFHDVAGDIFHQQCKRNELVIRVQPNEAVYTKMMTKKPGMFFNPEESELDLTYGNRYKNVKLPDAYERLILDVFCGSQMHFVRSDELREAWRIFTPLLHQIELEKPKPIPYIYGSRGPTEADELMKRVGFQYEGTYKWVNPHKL
# DNA dC->dU-editing enzyme APOBEC-3G, sequence (Q9HC16 whole entry): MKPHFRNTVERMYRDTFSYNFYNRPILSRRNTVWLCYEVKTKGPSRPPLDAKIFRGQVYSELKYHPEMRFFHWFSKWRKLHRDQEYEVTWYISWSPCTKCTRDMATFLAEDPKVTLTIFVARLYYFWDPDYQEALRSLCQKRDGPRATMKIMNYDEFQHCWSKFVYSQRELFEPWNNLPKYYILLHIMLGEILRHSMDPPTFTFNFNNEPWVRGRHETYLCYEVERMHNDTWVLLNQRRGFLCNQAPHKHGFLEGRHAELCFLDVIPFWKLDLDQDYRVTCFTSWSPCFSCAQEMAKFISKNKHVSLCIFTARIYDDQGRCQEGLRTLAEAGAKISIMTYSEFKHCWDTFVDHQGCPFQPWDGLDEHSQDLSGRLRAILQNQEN
# FAD-linked sulfhydryl oxidase ALR, sequence (P55789 whole entry): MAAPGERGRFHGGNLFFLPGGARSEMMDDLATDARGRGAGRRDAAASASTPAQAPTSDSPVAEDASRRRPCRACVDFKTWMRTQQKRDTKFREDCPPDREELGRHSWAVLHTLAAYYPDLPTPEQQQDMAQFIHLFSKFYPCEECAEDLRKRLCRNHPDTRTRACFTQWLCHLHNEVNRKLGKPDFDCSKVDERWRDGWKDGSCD
structure (smiles),measurement,setting,value
Cc1c(O)c(O)cc2c1oc1c3ccccc3oc(=O)c21,AC50,Cytochrome P450 3A4,20 µM (inconclusive)
COc1ccc(C(=O)Nc2nc(-c3cccs3)c(NC(C)=O)s2)cc1,IC50,[1],> 100 µM (not active)
same,IC50,[2],> 100 µM (inactive)
CCOC(=O)c1[nH]c2c(c1C)C(=O)CC(c1ccc(F)cc1)C2 (stereo unspecified),IC50,[3],> 80 µM (inactive)
Cc1ccc(S(=O)(=O)N(C)C)cc1NC(=S)NC12CC3CC(CC(C3)C1)C2,IC50,[1],> 100 µM (not active)
same,IC50,[2],> 100 µM (inactive)
O=C(Nc1cc(S(=O)(=O)N2CCOCC2)ccc1N1CCCCC1)c1cc(-c2ccccn2)nc2ccccc12,IC50,H9c2,> 79 µM (inactive)
same,IC50,[4],92.6 µM (active)
CCOC(=O)CCc1c(C)c2ccc(O)cc2oc1=O,IC50,[1],> 100 µM (not active)
same,IC50,[2],> 100 µM (inactive)
CCCCCCCOc1ccc(OC(=O)c2cccnc2)cc1,EC50,[5],1.89 µM (active)
same,EC50,[6],4.45 µM (active)
same,IC50,[3],> 80 µM (inactive)
Cc1cc(C)nc(/N=C(\N)NCCc2ccccc2)n1,IC50,[7],> 80 µM (inactive)
Cc1nc([N+](=O)[O-])c(SCc2ccc(O)c([N+](=O)[O-])c2)[nH]1,IC50,[4],77.9 µM (active)
Cc1cccn2c(=O)c3cc(C(=O)NCC4CCCO4)c(=N)n(C4CCCC4)c3nc12 (stereo unspecified),EC50,[8],> 50 µM (active)
CCn1/c(=N/c2ccc(N3CCOCC3)cc2)ccc2ccccc21,IC50,[1],> 100 µM (not active)
same,IC50,[2],> 100 µM (inactive)
C=C(CC(=O)OC)C[C@]1(CC(=O)OC)CC2(CC=C(C)C)C(=O)C(C(=O)c3ccccc3)=C(OC(=O)c3ccc(Br)cc3)C(CC=C(C)C)(C1)C2=O (stereo partly specified),AC50,Cytochrome P450 3A4,3.16 µM (inconclusive)
O=[N+]([O-])c1ccc(O)c(/C=N/n2c(S)nnc2-c2ccccc2)c1,AC50,[9],7.9 µM (active)
O=C(Nc1cc2c3c(c1)C1CCCC1CN3CC1CCCC21)c1ccc([N+](=O)[O-])cc1 (stereo unspecified),EC50,[5],1.07 µM (active)
same,EC50,[6],> 60 µM (inconclusive)
same,IC50,Prothrombin,> 50 µM (not active)
same,AC50,[10],4.88 µM (active)
same,AC50,[11],2.2 µM (active)
CCCn1c(C)nc2c(N3CCOCC3)nc(C)nc21,AC50,Cytochrome P450 3A4,7.94 µM (inconclusive)
CCOc1ccc(NC(=O)c2ccc(N)cc2)cc1,EC50,[8],> 50 µM (active)
O=S1(=O)CC2N=C(N(Cc3c(F)cccc3Cl)c3ccccc3F)SC2C1 (stereo unspecified),IC50,[1],> 100 µM (not active)
same,IC50,[2],> 100 µM (inactive)
Cc1ccc(S(=O)(=O)NNc2ccccc2)c(C)c1,AC50,[12],0.319 µM (active)
same,EC50,[8],> 50 µM (active)
S=C([S-])NCCNC(=S)[S-].[Zn+2],AC50,Cytochrome P450 3A4,25.1 µM (inconclusive)
CCN(CC)C(=O)c1c(C)[nH]c(=S)c(C#N)c1-c1ccco1,IC50,[7],> 80 µM (inactive)
CSc1nc(-c2ccccc2)nn1C(=O)c1ccc(Cl)cc1,AC50,[13],4.38 µM (active)
same,EC50,Protein RecA,44.3 µM (active)
same,IC50,Prothrombin,0.725 µM (active)
Cc1cc(C)n(/N=C/c2cc([N+](=O)[O-])ccc2O)c(=O)c1,EC50,[8],> 50 µM (active)
COc1ccc(-c2coc3ccc(OC4OC(COC(C)=O)C(OC(C)=O)C(OC(C)=O)C4OC(C)=O)c(OC(C)=O)c3c2=O)cc1 (stereo unspecified),AC50,Cytochrome P450 3A4,15.8 µM (inconclusive)
O=C(/C=C/c1ccccc1Cl)Nc1cccc(O)c1,EC50,[8],> 50 µM (active)
O=C(O)CSc1nc2ccc(Br)cc2o1,IC50,[14],> 100 µM (not active)
CSc1cccc(NC(=O)c2c(Cl)cnn2C)c1,AC50,[9],7.08 µM (active)
